Experimental findings from patent US20240327381A1, “Compounds and Compositions for Selective Degradation of Engineered Proteins” (Celgene Corporation, priority 2023, published 2024) are described below.

Experiment [1] has as its target T1, IKZF1 ZNF2_ZNF3 Q1F degron-tagged CD19 CAR (Homo sapiens, UniProt Q13422, Q146F).
T1 construct: ZNF2_ZNF3 Q1F degron (GERPFFCNQCGASFTQKGNLLRHIKLHSGEKPFKCHLCNYACRRRDALTGHLRTHS); fused on or other part: anti-CD19 scFv, CD28 transmembrane domain, 4-1BB costimulatory domain, CD3 zeta signaling domain (the CAR that carries the degron), and Nluc
Nature of the experiment: Degradation of Q1F degron-tagged CD19 CAR in Jurkat cells (flow cytometry of CAR levels). It is filed as cell-based. As to conditions: for DC50: Jurkat cells expressing CD19 CAR tagged with IKZF1 ZNF2_ZNF3 Q1F, 18 hours at 37° C., CAR levels normalized to untreated cells, read-out: Q1F Jurkat IC50; for Dmax: Ymax is the % protein degraded, Jurkat cells expressing Q1F degron-tagged CD19 CAR, 18 hours, read-out: Q1F Jurkat-YMax. An excerpt:
Q1F degron-targeting compounds were screened in Jurkat cells engineered to express a IKZF1 ZNF2_ZNF3 Q1F. The cell line was generated with lentiviral vectors containing CD19 CARs tagged with IKZF1 ZNF2_ZNF3 QIF Nluc, which were transduced into Jurkat cells. The CD19 CAR comprised an anti-CD19 scFv, a CD28 transmembrane domain, a 4-1BB costimulatory domain, a CD3ζ signaling domain, and a ZNF2_ZNF3 Q1F degron (GERPFFCNQCGASFTQKGNLLRHIKLHSGEKPFKCHLCNYACRRRDALTGHLRTHS; SEQ ID NO: 1; Q1F substitution underlined). Transduced cells were treated with a titration of each small molecule or no drug and then incubated at 37° C. for 18 hours. Cells were washed and stained with appropriate staining reagent to measure CAR levels. The cells were incubated at 4° C. in the staining reagents for 20 mins and then washed 3 times before being read on the flow cytometer. CAR levels were normalized to cells that had not been treated with drug. EC50 and Ymin values were calculated using the resulting titration curve. This identified small molecules that potently degraded the Q1F degron-tagged CARs (Table 1).
(§1) To determine the EC50 value of a compound for the degradation of a given substrate (concentration of compound that achieves half the maximum degradation observed), a four-parameter logistic model (sigmoidal dose-response model) (FIT=(A+{(B−A)/1+[(C/x)D]})) where C is the inflection point (EC50), D is the […], and A and B are the low and high limits of the fit, respectively) was used. All substrate degradation curves were processed and evaluated using ActivityBase (IDBS), a data analysis software package. Ymax is the % protein degraded (Ymin=100−Ymax and is minimum percent protein remaining).
In general terms: A flow cytometer gives signals particle by particle.

Experiment [2] has as its target T2, Helios (Homo sapiens, UniProt Q9UKS7).
T2 construct: endogenous in cells; host or cells: Jurkat cells, CRISPR/Cas9 knock-in of HiBit at the IKZF2 locus
Nature of the experiment: Helios degradation in Jurkat/Helios/HiBit cells (Nano-Glo luminescence). The class given is cell-based. Particulars: 18 hr, read-out: Helios Jurkat Hibit IC50. The procedure: For Helios, a stable Jurkat cell line was engineered using CRISPR/Cas9 to insert an in-frame HiBit tag into the carboxy-terminal reading frame of the IKZF2 gene. The sequence of human Helios is shown below:
Test compounds were transferred to 1536 well plates using an acoustic dispenser, and Jurkat/Helios/HiBit cells in DMEM/10% FCS were plated at 10,000 cells/well in a final volume of 5 μL. Cells were incubated at 37 C, 95% RH for 18 hr. Luciferase activity was measured by adding 2 μL/well of Nano-Glo reagent (Promega), incubating at RT for 30 min, and reading luminescence on a microtiter plate reader.
as §1
In general terms: HiBiT is a short tag that completes a luciferase, so light tracks the accessible tagged protein.

T2 sequence (Q9UKS7 whole entry): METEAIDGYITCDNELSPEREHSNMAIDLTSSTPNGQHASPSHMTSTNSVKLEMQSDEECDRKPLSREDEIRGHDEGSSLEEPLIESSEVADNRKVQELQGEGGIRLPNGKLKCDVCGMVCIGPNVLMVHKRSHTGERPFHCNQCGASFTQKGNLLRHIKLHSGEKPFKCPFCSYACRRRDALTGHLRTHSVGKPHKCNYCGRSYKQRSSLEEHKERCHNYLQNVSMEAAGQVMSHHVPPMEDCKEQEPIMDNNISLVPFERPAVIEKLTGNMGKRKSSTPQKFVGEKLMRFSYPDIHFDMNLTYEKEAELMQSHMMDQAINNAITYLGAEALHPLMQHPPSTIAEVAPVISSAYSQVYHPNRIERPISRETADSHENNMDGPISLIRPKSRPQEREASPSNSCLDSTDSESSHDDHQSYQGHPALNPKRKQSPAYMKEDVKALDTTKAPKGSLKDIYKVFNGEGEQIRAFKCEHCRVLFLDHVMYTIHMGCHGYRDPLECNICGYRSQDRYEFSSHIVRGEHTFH
T2 sequence (Q96SW2 whole entry, further chain): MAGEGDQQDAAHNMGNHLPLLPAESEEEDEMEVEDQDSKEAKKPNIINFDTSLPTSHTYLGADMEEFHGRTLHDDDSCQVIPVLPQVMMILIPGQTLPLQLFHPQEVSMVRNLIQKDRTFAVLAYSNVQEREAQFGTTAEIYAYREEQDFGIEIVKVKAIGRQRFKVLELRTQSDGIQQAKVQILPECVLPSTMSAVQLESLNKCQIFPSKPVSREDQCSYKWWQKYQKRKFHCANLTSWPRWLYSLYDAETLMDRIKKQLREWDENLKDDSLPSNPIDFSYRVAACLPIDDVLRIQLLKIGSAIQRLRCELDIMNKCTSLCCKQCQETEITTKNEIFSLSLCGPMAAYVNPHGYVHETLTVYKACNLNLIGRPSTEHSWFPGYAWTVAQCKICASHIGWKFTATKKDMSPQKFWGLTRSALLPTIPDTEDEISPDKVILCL
T2 sequence (Q16531 whole entry partner): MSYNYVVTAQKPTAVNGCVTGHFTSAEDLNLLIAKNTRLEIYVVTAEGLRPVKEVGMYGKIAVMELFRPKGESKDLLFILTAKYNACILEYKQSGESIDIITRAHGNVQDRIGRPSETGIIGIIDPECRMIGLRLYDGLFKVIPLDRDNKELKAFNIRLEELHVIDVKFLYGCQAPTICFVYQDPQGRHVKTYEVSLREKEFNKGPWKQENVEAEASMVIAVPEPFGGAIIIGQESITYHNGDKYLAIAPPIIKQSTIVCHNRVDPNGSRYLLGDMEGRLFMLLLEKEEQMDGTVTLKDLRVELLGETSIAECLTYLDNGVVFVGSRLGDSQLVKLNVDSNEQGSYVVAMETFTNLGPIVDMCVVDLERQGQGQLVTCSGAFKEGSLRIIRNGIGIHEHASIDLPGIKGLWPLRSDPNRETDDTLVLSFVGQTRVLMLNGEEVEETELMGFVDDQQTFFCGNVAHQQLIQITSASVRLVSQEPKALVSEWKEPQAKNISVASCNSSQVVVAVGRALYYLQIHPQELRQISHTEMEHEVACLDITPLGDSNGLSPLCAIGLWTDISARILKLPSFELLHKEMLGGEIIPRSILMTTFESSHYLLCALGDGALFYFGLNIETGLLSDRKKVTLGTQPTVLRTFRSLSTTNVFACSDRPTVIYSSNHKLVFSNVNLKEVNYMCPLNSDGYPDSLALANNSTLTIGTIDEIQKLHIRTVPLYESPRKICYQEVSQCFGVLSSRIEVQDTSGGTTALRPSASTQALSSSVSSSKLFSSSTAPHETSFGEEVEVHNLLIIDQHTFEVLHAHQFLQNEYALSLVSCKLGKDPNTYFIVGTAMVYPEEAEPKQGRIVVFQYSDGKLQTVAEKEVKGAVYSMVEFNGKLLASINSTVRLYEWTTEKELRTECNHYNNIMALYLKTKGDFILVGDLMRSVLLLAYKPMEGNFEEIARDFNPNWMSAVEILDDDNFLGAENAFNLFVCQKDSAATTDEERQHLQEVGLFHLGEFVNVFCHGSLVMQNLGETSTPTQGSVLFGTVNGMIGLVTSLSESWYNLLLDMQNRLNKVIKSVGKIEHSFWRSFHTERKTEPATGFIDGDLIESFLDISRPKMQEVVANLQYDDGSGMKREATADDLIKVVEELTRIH
T1 sequence (Q13422 whole entry Q146F, the tested form may be a part): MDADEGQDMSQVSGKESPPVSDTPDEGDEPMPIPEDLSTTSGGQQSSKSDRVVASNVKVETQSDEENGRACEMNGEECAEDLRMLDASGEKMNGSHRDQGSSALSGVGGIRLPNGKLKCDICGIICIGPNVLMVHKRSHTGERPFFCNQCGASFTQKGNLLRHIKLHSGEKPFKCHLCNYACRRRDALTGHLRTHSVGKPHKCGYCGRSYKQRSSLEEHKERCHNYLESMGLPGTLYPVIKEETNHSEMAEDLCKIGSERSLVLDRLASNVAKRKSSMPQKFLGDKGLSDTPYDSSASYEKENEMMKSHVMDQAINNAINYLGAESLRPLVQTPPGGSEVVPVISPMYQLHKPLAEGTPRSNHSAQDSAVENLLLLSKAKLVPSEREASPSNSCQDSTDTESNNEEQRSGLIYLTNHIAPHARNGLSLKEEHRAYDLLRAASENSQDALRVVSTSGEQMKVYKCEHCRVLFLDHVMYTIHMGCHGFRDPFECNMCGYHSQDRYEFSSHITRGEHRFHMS

As to `O=C1CCC(N2Cc3c(cc(F)c(C4CCN(Cc5ccc(C(F)F)cc5)CC4)c3F)C2=O)C(=O)N1` (centres unmarked) [Compound 51, 3-(5-(1-(4-(difluoromethyl)benzyl)piperidin-4-yl)-4,6-difluoro-1-oxoisoindolin-2-yl)piperidine-2,6-dione], in experiment [1], the DC50 worked out at 0.097 nM and the Dmax was 92%. Further, the DC50 in experiment [2] was not below 10000 nM.
Taken in the same sequence, the figures for `CN(C)c1ccc(CN2CCC(c3c(F)cc4c(c3F)CN(C3CCC(=O)NC3=O)C4=O)CC2)cc1` (centres unmarked) [Compound 110, 3-(5-(1-(4-(dimethylamino)benzyl)piperidin-4-yl)-4,6-difluoro-1-oxoisoindolin-2-yl)piperidine-2,6-dione] were 1.12 nM, 90.5% and not below 10000 nM.
For the compound `O=C1CCC(N2Cc3c(cc(F)c(C4CCN(Cc5ccc6c(c5)OC(F)(F)O6)CC4)c3F)C2=O)C(=O)N1` (centres unmarked) [Compound 59, 3-(5-(1-((2,2-difluorobenzo[d][1,3]dioxol-5-yl)methyl)piperidin-4-yl)-4,6-difluoro-1-oxoisoindolin-2-yl)piperidine-2,6-dione], in experiment [1], the DC50 worked out at 0.01 nM and the Dmax amounted to 92.2%. Further, in experiment [2], the DC50 was not below 10000 nM.
With `COc1ccc(-n2cccn2)c(CN2CCC(O)(c3c(F)cc4c(c3F)CN(C3CCC(=O)NC3=O)C4=O)CC2)c1` (centres unmarked) [Compound 23, 3-(4,6-difluoro-5-(4-hydroxy-1-(5-methoxy-2-(1H-pyrazol-1-yl)benzyl)piperidin-4-yl)-1-oxoisoindolin-2-yl)piperidine-2,6-dione], in experiment [1], the DC50 was 279 nM and the Dmax amounted to 51.6%.
Taken in the same sequence, the figures for `O=C1CCC(N2Cc3c(cc(F)c(C4(O)CCN(Cc5cc(F)c(C(F)(F)F)cc5F)CC4)c3F)C2=O)C(=O)N1` (centres unmarked) [Compound 21, 3-(5-(1-(2,5-difluoro-4-(trifluoromethyl)benzyl)-4-hydroxypiperidin-4-yl)-4,6-difluoro-1-oxoisoindolin-2-yl)piperidine-2,6-dione] were 40.2 nM and 70.7%.
Taken in the same sequence, the figures for `COc1ccnc(CN2CCC(O)(c3c(F)cc4c(c3F)CN(C3CCC(=O)NC3=O)C4=O)CC2)c1` (centres unmarked) [Compound 25, 3-(4,6-difluoro-5-(4-hydroxy-1-((4-methoxypyridin-2-yl)methyl)piperidin-4-yl)-1-oxoisoindolin-2-yl)piperidine-2,6-dione] were 48.2 nM and 67.4%.
With `CN(CCN1CCC(O)(c2c(F)cc3c(c2F)CN(C2CCC(=O)NC2=O)C3=O)CC1)Cc1ccccc1` (centres unmarked) [Compound 30, 3-(5-(1-(2-(benzyl(methyl)amino)ethyl)-4-hydroxypiperidin-4-yl)-4,6-difluoro-1-oxoisoindolin-2-yl)piperidine-2,6-dione], in experiment [1], the DC50 was 192 nM and the Dmax is 57.8%.
The like results for `O=C1CCC(N2Cc3c(cc(F)c(C4(O)CCN(Cc5ccc(C(F)(F)F)cc5F)CC4)c3F)C2=O)C(=O)N1` (centres unmarked) [Compound 20, 3-(4,6-difluoro-5-(1-(2-fluoro-4-(trifluoromethyl)benzyl)-4-hydroxypiperidin-4-yl)-1-oxoisoindolin-2-yl)piperidine-2,6-dione] were, in that order, 33.3 nM and 77.1%.
Taken in the same sequence, the figures for `Cc1ccc(CN2CCC(O)(c3c(F)cc4c(c3F)CN(C3CCC(=O)NC3=O)C4=O)CC2)cc1` (centres unmarked) [Compound 27, 3-(4,6-difluoro-5-(4-hydroxy-1-(4-methylbenzyl)piperidin-4-yl)-1-oxoisoindolin-2-yl)piperidine-2,6-dione] were 17.2 nM and 76.2%.
Taken in the same sequence, the figures for `O=C1CCC(N2Cc3c(cc(F)c(C4(O)CCN(Cc5ncccc5Br)CC4)c3F)C2=O)C(=O)N1` (centres unmarked) [Compound 24, 3-(5-(1-((3-bromopyridin-2-yl)methyl)-4-hydroxypiperidin-4-yl)-4,6-difluoro-1-oxoisoindolin-2-yl)piperidine-2,6-dione] were 101 nM and 57.3%.
